According to patent US6914045B2, “Glycopeptide antibiotics” (Wyeth Holdings Corporation, priority 2001, dated 2005):

Tests used:
Assay in all cases: in vitro antibacterial evaluation, MIC by broth dilution
Type in all cases: cell-based
[1] = system: Streptococcus sp.; settings: broth dilution, 18 hours at 35° C.
In short: (§1)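 Read-out: the lowest concentration at which the test strain fails to grow. Serial dilutions (64-0.06 μg/mL) in Muller-Hinton II […], 5×10^5 CFU/mL inoculum, NCCLS M7-A2 procedure.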

[2] = system: Escherichia coli
In short: as §1

[3] = system: Enterococcus sp.; settings: broth dilution, 18 hours at 35° C.
In short: as §1

[4] = system: Staphylococcus sp.; settings: broth dilution, 18 hours at 35° C.; for MIC Staphylococcus aureus (GC 1131): strain GC 1131
In short: as §1

COc1cc(OC)cc(C2OC3C(OC4C(CO)OC(Oc5ccc(CC6NC(=O)C(C(C)c7ccccc7)NC(=O)CNC(=O)C(CO)NC(=O)C(C(O)C7CNC(=N)N7C7OC(CO)C(O)C(O)C7O)NC(=O)C(C(O)C7CNC(=N)N7)NC6=O)cc5)C(O)C4O)OC(CO)C(O)C3O2)c1 (stereo not drawn) [Example 150a]
>64 µg/mL: MIC Escherichia coli (ATCC 25922) ([2]; strain ATCC 25922, 18 hours at 35° C.) | MIC Escherichia coli (GC 4559) ([2]; strain GC 4559, 18 hours at 35° C.) | MIC Enterococcus faecalis (ATCC 29212) ([3]; Enterococcus faecalis (ATCC 29212)) | MIC Enterococcus faecalis (GC 2242) ([3]; Enterococcus faecalis (GC 2242)) | MIC Enterococcus faecalis (GC 2691) ([3]; Enterococcus faecalis (GC 2691)) | MIC Enterococcus faecalis (GC 3059) ([3]; Enterococcus faecalis (GC 3059)) | MIC Enterococcus faecalis (GC 4552) ([3]; Enterococcus faecalis (GC 4552)) | MIC Enterococcus faecalis (GC 4553) ([3]; Enterococcus faecalis (GC 4553)) | MIC Enterococcus faecalis (GC 4554) ([3]; Enterococcus faecalis (GC 4554)) | MIC Enterococcus faecalis (GC 6189) ([3]; Enterococcus faecalis (GC 6189)) | MIC Enterococcus faecium (GC 2243) ([3]; Enterococcus faecium (GC 2243)) | MIC Enterococcus faecium (GC 4556) ([3]; Enterococcus faecium (GC 4556)) | MIC Enterococcus faecalis (ATCC 29212) ([3]; strain ATCC 29212) | MIC Enterococcus faecalis (GC 2242) ([3]; strain GC 2242) | MIC Enterococcus faecium (GC 2243) ([3]; strain GC 2243) | MIC Enterococcus faecalis (GC 2691) ([3]; strain GC 2691) | MIC Enterococcus faecalis (GC 3059) ([3]; strain GC 3059) | MIC Enterococcus faecalis (GC 4552) ([3]; strain GC 4552) | MIC Enterococcus faecalis (GC 4553) ([3]; strain GC 4553) | MIC Enterococcus faecalis (GC 4554) ([3]; strain GC 4554) | MIC Enterococcus faecium (GC 4556) ([3]; strain GC 4556) | MIC Enterococcus faecalis (GC 6189) ([3]; strain GC 6189)
16 µg/mL: MIC Streptococcus pneumoniae (GC 4565) ([1]; Streptococcus pneumoniae (GC 4565)) | MIC Streptococcus pyogenes (GC 4563) ([1]; Streptococcus pyogenes (GC 4563)) | MIC Streptococcus pyogenes (GC 4563) ([1]; strain GC 4563) | MIC Streptococcus pneumoniae (GC 4565) ([1]; strain GC 4565) | MIC Escherichia coli (GC 4560) ([2]; strain GC 4560, 18 hours at 35° C.) | MIC Enterococcus faecium (GC 4557) ([3]; Enterococcus faecium (GC 4557)) | MIC Enterococcus faecium (GC 4557) ([3]; strain GC 4557) | MIC Staphylococcus aureus (GC 4541) ([4]; strain GC 4541) | MIC Staphylococcus aureus-SMITH (GC 4543) ([4]; strain GC 4543) | MIC Staphylococcus aureus (GC 4545) ([4]; strain GC 4545) | MIC Staphylococcus haemolyticus (GC 4546) ([4]; strain GC 4546) | MIC Coagulase Negative Staphylococcus (GC 4547) ([4]; strain GC 4547) | MIC Staphylococcus aureus-SMITH (GC 4543) ([4]; strain SMITH GC 4543)
32 µg/mL: MIC Streptococcus agalactiae (GC 4564) ([1]; Streptococcus agalactiae (GC 4564)) | MIC Streptococcus agalactiae (GC 4564) ([1]; strain GC 4564) | MIC Staphylococcus aureus (GC 1131) ([4]; inoculum 5×10^5 CFU/mL) | MIC Staphylococcus aureus (ATCC 29213) ([4]; strain ATCC 29213) | MIC Staphylococcus aureus (GC 1131) [4] | MIC Staphylococcus aureus (GC 3051) ([4]; strain GC 3051) | MIC Staphylococcus aureus (GC 3053) ([4]; strain GC 3053) | MIC Staphylococcus aureus (GC 4542) ([4]; strain GC 4542) | MIC Staphylococcus aureus (GC 4544) ([4]; strain GC 4544) | MIC Coagulase Negative Staphylococcus (GC 4551) ([4]; strain GC 4551)
64 µg/mL: MIC Enterococcus avium (GC 4558) ([3]; Enterococcus avium (GC 4558)) | MIC Enterococcus avium (GC 4558) ([3]; strain GC 4558)
8 µg/mL: MIC Streptococcus pneumoniae (ATCC 6301) ([1]; Streptococcus pneumoniae (ATCC 6301)) | MIC Streptococcus pneumoniae (GC 1894) ([1]; Streptococcus pneumoniae (GC 1894)) | MIC Streptococcus pneumoniae (ATCC 6301) ([1]; strain ATCC 6301) | MIC Streptococcus pneumoniae (GC 1894) ([1]; strain GC 1894) | MIC Coagulase Negative Staphylococcus (GC 4548) ([4]; strain GC 4548) | MIC Coagulase Negative Staphylococcus (GC 4549) ([4]; strain GC 4549) | MIC Coagulase Negative Staphylococcus (GC 6257) ([4]; strain GC 6257)
